The values below come from ChEMBL document CHEMBL5653631, “A Potent and Selective ULK1 Inhibitor Suppresses Autophagy and Sensitizes Cancer Cells to Nutrient Stress” (iScience, 2018).

Assay [1] has as its target T1, Serine/threonine-protein kinase Nek3 (Homo sapiens) (UniProt P51956).
T1 sequence (whole entry): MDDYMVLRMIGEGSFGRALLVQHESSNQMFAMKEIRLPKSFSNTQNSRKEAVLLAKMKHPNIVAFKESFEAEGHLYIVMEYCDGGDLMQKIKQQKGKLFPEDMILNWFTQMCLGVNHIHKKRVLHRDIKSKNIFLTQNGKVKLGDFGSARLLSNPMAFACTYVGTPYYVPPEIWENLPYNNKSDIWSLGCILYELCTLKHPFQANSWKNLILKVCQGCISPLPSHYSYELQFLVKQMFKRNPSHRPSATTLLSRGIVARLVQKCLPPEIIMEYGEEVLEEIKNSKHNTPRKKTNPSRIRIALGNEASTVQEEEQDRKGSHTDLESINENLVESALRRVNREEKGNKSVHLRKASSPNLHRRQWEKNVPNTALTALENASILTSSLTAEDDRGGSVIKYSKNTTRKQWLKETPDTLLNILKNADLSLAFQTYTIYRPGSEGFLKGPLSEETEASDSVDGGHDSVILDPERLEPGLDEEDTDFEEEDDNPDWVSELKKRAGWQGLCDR
Put plainly: Inhibition of human recombinant NEK3 at 15 nM related to control ULK1.

Assay [2] addresses Bone morphogenetic protein receptor type-1B (Homo sapiens) (UniProt O00238). Put plainly: Inhibition of human recombinant BMPR1B at 15 nM related to control ULK1.
For assay [3], the target named is Receptor-type tyrosine-protein kinase FLT3 (Homo sapiens) (UniProt P36888). Kind of assay: Inhibition of human recombinant FLT3 at 15 nM related to control ULK1.
The target in assay [4] is Tyrosine-protein kinase HCK (Homo sapiens) (UniProt P08631). Put plainly: Inhibition of human recombinant HCK at 15 nM related to control ULK1.
Assay [5] addresses Serine/threonine-protein kinase 38-like (Homo sapiens) (UniProt Q9Y2H1). Kind of assay: Inhibition of human recombinant NDR2 at 40 nM related to control ULK1.
Assay [6] has as its target Protein kinase C theta type (Homo sapiens) (UniProt Q04759). Kind of assay: Inhibition of human recombinant PKCt at 40 nM in presence of ATP by radiometric assay relative to control.
For assay [7], the target named is T2, Dual specificity protein kinase TTK (Homo sapiens) (UniProt P33981).
T2 sequence (whole entry): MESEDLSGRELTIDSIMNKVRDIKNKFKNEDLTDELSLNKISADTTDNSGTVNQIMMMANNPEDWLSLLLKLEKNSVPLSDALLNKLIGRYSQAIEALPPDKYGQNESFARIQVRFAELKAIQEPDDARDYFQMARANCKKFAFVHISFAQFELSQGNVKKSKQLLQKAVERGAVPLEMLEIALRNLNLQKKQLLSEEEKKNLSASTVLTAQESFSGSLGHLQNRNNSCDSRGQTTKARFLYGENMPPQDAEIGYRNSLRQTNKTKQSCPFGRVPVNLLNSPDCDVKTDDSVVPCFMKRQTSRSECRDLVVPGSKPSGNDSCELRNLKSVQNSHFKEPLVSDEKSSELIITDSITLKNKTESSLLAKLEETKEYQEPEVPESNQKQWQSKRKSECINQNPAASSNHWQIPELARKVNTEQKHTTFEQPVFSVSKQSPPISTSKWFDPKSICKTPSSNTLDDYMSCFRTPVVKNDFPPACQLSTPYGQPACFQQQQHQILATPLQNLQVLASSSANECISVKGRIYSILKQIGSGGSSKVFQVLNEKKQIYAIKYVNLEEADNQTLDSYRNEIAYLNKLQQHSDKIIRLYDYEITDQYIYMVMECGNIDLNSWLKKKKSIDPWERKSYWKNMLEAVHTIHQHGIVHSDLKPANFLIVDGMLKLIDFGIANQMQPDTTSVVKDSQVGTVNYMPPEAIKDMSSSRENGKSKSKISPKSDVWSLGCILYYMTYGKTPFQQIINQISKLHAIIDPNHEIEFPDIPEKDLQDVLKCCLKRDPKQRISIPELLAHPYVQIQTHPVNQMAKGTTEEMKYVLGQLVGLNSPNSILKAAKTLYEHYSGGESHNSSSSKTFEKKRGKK
Kind of assay: Inhibition of human recombinant TTK at 40 nM in presence of ATP by radiometric assay relative to control.

Assay [8] addresses Mitogen-activated protein kinase kinase kinase kinase 4 (Homo sapiens) (UniProt O95819). Put plainly: Inhibition of human recombinant HGK at 40 nM related to control ULK1.
In assay [9] the target is Tyrosine-protein kinase Tec (Homo sapiens) (UniProt P42680). Kind of assay: Inhibition of human recombinant TEC at 500 nM in presence of ATP by radiometric assay relative to control.
Assay [10] deals with Protein kinase C theta type (Homo sapiens) (UniProt Q04759). Kind of assay: Inhibition of human recombinant PKCt at 500 nM in presence of ATP by radiometric assay relative to control.
For assay [11], the target named is Tyrosine-protein kinase Lyn (Homo sapiens) (UniProt P07948). Put plainly: Inhibition of human recombinant LYN at 500 nM related to control ULK1.
Assay [12] deals with Calcium/calmodulin-dependent protein kinase type 1 (Homo sapiens) (UniProt Q14012). Put plainly: Inhibition of human recombinant CaMK1a at 500 nM in presence of ATP by radiometric assay relative to control.
Assay [13] concerns the target Glycogen synthase kinase-3 alpha (Homo sapiens) (UniProt P49840). Kind of assay: Inhibition of human recombinant GSK3A at 500 nM in presence of ATP by radiometric assay relative to control.
The target of assay [14] is T3, Testis-specific serine/threonine-protein kinase 4 (Homo sapiens) (UniProt Q6SA08).
T3 sequence (whole entry): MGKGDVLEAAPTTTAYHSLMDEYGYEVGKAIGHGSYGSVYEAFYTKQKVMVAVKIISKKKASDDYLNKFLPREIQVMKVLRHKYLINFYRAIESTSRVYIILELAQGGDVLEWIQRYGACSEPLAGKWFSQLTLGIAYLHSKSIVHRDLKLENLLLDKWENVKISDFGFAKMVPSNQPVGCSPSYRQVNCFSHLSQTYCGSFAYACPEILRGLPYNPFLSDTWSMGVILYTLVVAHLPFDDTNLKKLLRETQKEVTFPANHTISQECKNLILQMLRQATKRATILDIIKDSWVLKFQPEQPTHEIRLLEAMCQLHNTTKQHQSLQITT
Kind of assay: Inhibition of human recombinant TSSK4 at 500 nM in presence of ATP by radiometric assay relative to control.

Assay [15] has as its target Ribosomal protein S6 kinase alpha-1 (Homo sapiens) (UniProt Q15418). Put plainly: Inhibition of human recombinant RSK1 at 500 nM related to control ULK1.

Sequence of Protein kinase C theta type (Homo sapiens) (Q04759 whole entry, looked up): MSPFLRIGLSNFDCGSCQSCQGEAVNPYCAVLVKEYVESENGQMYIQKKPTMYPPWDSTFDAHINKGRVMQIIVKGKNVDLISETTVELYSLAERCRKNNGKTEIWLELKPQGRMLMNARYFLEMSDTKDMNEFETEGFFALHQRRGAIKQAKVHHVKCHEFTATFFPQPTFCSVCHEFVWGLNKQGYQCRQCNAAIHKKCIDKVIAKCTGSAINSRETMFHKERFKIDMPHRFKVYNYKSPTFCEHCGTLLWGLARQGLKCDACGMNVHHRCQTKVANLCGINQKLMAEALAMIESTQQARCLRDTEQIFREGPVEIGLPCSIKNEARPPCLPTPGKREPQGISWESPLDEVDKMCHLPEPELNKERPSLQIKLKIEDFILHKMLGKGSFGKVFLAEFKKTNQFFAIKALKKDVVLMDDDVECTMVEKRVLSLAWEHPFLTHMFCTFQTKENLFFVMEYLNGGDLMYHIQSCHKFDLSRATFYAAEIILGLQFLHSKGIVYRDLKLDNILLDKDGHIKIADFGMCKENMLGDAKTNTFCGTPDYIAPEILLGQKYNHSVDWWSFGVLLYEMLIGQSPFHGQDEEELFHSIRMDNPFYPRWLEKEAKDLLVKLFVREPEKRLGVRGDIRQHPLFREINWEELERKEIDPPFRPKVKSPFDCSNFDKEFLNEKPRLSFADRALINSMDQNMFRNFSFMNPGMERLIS
Sequence of Tyrosine-protein kinase HCK (Homo sapiens) (P08631 2-526 limits assumed): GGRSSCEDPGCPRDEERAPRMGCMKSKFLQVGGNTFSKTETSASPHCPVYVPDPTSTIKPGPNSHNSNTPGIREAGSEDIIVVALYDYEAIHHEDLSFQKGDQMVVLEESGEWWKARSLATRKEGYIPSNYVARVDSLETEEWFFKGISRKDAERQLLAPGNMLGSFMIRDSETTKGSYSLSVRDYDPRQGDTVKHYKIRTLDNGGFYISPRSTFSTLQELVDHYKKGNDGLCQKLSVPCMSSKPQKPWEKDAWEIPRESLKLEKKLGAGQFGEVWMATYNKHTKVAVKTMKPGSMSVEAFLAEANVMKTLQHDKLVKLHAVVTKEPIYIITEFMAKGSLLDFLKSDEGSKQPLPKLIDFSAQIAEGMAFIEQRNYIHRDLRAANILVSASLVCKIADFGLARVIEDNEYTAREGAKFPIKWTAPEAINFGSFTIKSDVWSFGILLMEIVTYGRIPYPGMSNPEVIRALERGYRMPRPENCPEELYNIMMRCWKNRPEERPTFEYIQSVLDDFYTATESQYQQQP
Sequence of Glycogen synthase kinase-3 alpha (Homo sapiens) (P49840 2-483 limits assumed): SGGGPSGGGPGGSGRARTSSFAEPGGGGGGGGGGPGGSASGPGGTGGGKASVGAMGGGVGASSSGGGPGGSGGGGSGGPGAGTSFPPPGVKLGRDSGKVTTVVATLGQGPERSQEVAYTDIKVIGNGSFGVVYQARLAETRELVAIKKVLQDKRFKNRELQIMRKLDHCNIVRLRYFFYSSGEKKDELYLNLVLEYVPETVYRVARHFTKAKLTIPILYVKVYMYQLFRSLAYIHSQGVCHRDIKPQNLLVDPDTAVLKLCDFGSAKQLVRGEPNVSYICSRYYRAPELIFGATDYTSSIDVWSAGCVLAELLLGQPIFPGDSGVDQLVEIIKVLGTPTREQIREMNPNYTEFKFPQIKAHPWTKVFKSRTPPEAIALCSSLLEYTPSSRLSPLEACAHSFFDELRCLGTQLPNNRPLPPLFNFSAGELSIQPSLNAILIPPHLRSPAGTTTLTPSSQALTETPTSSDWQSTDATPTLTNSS
Sequence of Bone morphogenetic protein receptor type-1B (Homo sapiens) (O00238 whole entry): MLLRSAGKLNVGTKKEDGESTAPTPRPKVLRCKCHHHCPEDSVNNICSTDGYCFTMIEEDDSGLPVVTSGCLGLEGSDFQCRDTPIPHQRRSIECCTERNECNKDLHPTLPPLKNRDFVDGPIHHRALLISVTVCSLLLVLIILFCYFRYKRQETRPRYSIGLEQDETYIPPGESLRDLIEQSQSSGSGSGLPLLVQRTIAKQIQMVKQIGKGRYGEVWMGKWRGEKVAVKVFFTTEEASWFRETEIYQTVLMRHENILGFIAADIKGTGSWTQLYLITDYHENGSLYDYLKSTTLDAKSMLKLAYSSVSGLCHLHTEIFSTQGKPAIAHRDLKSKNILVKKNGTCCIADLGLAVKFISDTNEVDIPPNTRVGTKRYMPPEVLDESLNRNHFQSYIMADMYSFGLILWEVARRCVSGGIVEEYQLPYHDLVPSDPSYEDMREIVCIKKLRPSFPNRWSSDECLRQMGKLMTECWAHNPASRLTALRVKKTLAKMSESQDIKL
Sequence of Tyrosine-protein kinase Lyn (Homo sapiens) (P07948 2-512 limits assumed): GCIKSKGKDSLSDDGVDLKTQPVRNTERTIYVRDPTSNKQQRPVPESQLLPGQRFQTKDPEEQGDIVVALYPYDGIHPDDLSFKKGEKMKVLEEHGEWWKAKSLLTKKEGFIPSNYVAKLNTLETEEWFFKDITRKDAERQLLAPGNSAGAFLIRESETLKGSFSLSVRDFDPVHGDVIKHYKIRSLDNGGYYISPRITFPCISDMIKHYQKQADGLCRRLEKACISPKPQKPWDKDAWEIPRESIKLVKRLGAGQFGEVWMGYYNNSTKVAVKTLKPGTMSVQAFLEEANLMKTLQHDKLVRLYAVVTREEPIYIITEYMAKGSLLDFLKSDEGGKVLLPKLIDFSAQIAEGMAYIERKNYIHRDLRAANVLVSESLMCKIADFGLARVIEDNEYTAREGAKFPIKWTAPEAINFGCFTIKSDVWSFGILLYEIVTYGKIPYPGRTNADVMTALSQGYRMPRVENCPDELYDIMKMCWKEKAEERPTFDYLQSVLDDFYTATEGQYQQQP
Sequence of Calcium/calmodulin-dependent protein kinase type 1 (Homo sapiens) (Q14012 whole entry, looked up): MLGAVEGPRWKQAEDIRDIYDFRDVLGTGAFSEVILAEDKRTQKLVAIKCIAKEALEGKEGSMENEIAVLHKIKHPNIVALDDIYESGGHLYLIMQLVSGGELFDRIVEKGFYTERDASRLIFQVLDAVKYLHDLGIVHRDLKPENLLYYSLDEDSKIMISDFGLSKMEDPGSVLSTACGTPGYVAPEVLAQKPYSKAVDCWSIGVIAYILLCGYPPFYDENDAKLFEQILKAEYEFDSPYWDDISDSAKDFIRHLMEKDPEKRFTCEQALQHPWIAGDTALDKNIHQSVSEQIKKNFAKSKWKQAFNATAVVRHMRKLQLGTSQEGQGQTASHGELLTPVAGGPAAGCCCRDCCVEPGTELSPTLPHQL
Sequence of Receptor-type tyrosine-protein kinase FLT3 (Homo sapiens) (P36888 whole entry): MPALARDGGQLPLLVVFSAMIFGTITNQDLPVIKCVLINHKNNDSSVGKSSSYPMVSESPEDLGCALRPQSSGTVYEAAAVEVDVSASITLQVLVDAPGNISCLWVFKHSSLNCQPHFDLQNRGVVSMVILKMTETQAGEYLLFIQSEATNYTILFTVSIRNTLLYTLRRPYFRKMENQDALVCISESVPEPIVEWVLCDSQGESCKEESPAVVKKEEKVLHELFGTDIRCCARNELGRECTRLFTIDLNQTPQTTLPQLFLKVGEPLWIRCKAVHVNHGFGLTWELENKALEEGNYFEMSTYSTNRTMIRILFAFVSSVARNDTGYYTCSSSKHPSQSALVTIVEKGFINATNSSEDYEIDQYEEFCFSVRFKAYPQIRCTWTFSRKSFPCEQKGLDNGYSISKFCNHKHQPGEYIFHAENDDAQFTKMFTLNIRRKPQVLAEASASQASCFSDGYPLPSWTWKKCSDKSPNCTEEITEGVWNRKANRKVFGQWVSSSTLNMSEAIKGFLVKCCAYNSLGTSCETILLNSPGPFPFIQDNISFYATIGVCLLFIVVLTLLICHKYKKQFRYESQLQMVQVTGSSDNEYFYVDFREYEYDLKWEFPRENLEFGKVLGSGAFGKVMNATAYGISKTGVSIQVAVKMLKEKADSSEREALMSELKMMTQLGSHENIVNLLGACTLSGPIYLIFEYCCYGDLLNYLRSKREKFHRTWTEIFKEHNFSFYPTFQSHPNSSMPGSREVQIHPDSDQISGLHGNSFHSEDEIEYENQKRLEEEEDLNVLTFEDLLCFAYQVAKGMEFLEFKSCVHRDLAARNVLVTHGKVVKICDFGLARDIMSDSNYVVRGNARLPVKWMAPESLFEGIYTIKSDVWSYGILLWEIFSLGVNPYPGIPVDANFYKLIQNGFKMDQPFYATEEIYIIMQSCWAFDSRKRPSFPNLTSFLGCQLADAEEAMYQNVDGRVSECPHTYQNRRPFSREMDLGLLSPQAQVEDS
Sequence of Tyrosine-protein kinase Tec (Homo sapiens) (P42680 whole entry, looked up): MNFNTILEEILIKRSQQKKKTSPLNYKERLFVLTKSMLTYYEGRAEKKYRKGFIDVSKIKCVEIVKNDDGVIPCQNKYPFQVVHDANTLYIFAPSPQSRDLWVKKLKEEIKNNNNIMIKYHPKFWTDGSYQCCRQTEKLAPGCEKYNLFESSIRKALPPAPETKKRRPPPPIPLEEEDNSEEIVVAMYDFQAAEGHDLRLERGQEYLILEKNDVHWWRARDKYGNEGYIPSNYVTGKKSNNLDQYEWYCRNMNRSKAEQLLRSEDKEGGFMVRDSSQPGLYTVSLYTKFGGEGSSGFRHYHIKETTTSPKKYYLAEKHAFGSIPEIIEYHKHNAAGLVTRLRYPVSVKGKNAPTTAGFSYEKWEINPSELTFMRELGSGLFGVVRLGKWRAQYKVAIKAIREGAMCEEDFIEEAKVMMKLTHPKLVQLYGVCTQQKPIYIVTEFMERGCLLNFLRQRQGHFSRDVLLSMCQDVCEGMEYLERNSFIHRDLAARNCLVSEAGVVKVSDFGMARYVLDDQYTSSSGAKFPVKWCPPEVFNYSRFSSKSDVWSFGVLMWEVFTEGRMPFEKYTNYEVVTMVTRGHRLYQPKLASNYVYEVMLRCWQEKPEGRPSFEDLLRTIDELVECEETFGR

Take `CC(C)[C@H](NC(=O)c1cc(-c2cnn3cc(-c4ccc(OCCN5CCCCC5)cc4)cnc23)cs1)C(F)(F)F`: the fold change (FC) in assay [1] worked out at 0.01; in assay [2] it was 0.27; in [3] it was 0.77; in assay [4], 0.3.

Take `O=C(N[C@@H](C1CC1)C(F)(F)F)c1cc(-c2cnn3cc(-c4ccc(F)cc4)cnc23)cs1`: the fold change (FC) in assay [5] and in assay [8] was 0 each time. Further, the results for the inhibition in [6] and in assay [7] were 0% and 33%, respectively.

Turning to `CNC(=O)c1ccccc1Oc1nc(Nc2cc(OC)c(OC)c(OC)c2)ncc1Br`, the inhibition in [9] is 2%; in assay [10], 0%; in assay [12] it was 0%; in [13], 0%; in assay [14], 0%. For the same compound, the fold change (FC) in [11] was determined as 0.41; in assay [15], 0.26.
